Experimental data published in ChEMBL document CHEMBL5625252, “Synthesis of peptidomimetics as antibiotic adjuvants for combination with aztreonam to combat MDR Pseudomonas aeruginosa” (Eur J Med Chem, 2023).
≈ marks a conversion by molar mass, not a printed value. Where a SMILES comes first, the peptide text is derived from it. The star is where a group is joined. βNA = c1ccc2cc(N*)ccc2c1

Columns and labels:
Pseudomonas aeruginosa [1] = test: Antibacterial activity against Pseudomonas aeruginosa 16-11 in CAMH broth medium supplemented with 0.41 to 0.51 mM Mg2+ by checkerboard assay; type: functional
[2] = Cytotoxicity against HEK293 cells incubated for 24 hrs by MTT assay; type: toxicity, cell-based; details: human
[3] = Cytotoxicity against human LX2 cells incubated for 24 hrs by MTT assay; type: toxicity, cell-based; details: LX-2 cells
Pseudomonas aeruginosa [4] = test: Synergistic antibacterial activity against Pseudomonas aeruginosa PAO1 assessed as aztreonam MIC at 64 ug/ml incubated for 18 hrs by checkerboard method (reference value: 8 microg/ml); type: functional; details: dose 64 µg/ml
Pseudomonas aeruginosa [5] = test: Antibacterial activity against Pseudomonas aeruginosa 21-8 assessed as inhibition of bacterial growth incubated for 18 hrs by agar dilution method; type: functional
Pseudomonas aeruginosa [6] = test: Antibacterial activity against Pseudomonas aeruginosa 23-Y417 assessed as inhibition of bacterial growth incubated for 18 hrs by agar dilution method; type: functional
Pseudomonas aeruginosa [7] = test: Antibacterial activity against Pseudomonas aeruginosa 21-2 assessed as inhibition of bacterial growth incubated for 18 hrs by agar dilution method; type: functional
Pseudomonas aeruginosa [8] = test: Antibacterial activity against Pseudomonas aeruginosa 23-Y364 assessed as inhibition of bacterial growth incubated for 18 hrs by agar dilution method; type: functional
Pseudomonas aeruginosa [9] = test: Synergistic antibacterial activity against Pseudomonas aeruginosa 23-Y122 assessed as aztreonam MIC at 128 ug/ml incubated for 18 hrs by checkerboard method; type: functional; details: dose 128 µg/ml
Pseudomonas aeruginosa [10] = test: Synergistic antibacterial activity against Pseudomonas aeruginosa PAO1 assessed as fractional inhibitory concentration index at 128 ug/ml incubated for 18 hrs in presence of aztreonam by checkerboard method; type: functional; details: dose 128 µg/ml
Pseudomonas aeruginosa [11] = test: Synergistic antibacterial activity against Pseudomonas aeruginosa 16-11 assessed as fractional inhibitory concentration index at 128 ug/ml incubated for 18 hrs in presence of aztreonam by checkerboard method; type: functional; details: dose 128 µg/ml
Pseudomonas aeruginosa [12] = test: Synergistic antibacterial activity against Pseudomonas aeruginosa 21-8 assessed as fractional inhibitory concentration index at 128 ug/ml incubated for 18 hrs in presence of aztreonam by checkerboard method; type: functional; details: dose 128 µg/ml
Pseudomonas aeruginosa [13] = test: Synergistic antibacterial activity against Pseudomonas aeruginosa 13-35 assessed as fractional inhibitory concentration index at 128 ug/ml incubated for 18 hrs in presence of aztreonam by checkerboard method; type: functional; details: dose 128 µg/ml
Pseudomonas aeruginosa [14] = test: Synergistic antibacterial activity against Pseudomonas aeruginosa 23-Y122 assessed as fractional inhibitory concentration index at 128 ug/ml incubated for 18 hrs in presence of aztreonam by checkerboard method; type: functional; details: dose 128 µg/ml
Pseudomonas aeruginosa [15] = test: Synergistic antibacterial activity against Pseudomonas aeruginosa 23-Y511 assessed as fractional inhibitory concentration index at 128 ug/ml incubated for 18 hrs in presence of aztreonam by checkerboard method; type: functional; details: dose 128 µg/ml
Pseudomonas aeruginosa [16] = test: Synergistic antibacterial activity against Pseudomonas aeruginosa 12-1 assessed as fractional inhibitory concentration index at 128 ug/ml incubated for 18 hrs in presence of aztreonam by checkerboard method; type: functional; details: dose 128 µg/ml
Pseudomonas aeruginosa [17] = test: Synergistic antibacterial activity against Pseudomonas aeruginosa 13-17 assessed as fractional inhibitory concentration index at 128 ug/ml incubated for 18 hrs in presence of aztreonam by checkerboard method; type: functional; details: dose 128 µg/ml
Pseudomonas aeruginosa [18] = test: Synergistic antibacterial activity against Pseudomonas aeruginosa 16-2 assessed as fractional inhibitory concentration index at 128 ug/ml incubated for 18 hrs in presence of aztreonam by checkerboard method; type: functional; details: dose 128 µg/ml
Pseudomonas aeruginosa [19] = test: Synergistic antibacterial activity against Pseudomonas aeruginosa 19-46 assessed as fractional inhibitory concentration index at 128 ug/ml incubated for 18 hrs in presence of aztreonam by checkerboard method; type: functional; details: dose 128 µg/ml
Pseudomonas aeruginosa [20] = test: Synergistic antibacterial activity against Pseudomonas aeruginosa 19-55 assessed as fractional inhibitory concentration index at 128 ug/ml incubated for 18 hrs in presence of aztreonam by checkerboard method; type: functional; details: dose 128 µg/ml
Pseudomonas aeruginosa [21] = test: Synergistic antibacterial activity against Pseudomonas aeruginosa 21-7 assessed as fractional inhibitory concentration index at 128 ug/ml incubated for 18 hrs in presence of aztreonam by checkerboard method; type: functional; details: dose 128 µg/ml
Pseudomonas aeruginosa [22] = test: Synergistic antibacterial activity against Pseudomonas aeruginosa 23-Y364 assessed as fractional inhibitory concentration index at 128 ug/ml incubated for 18 hrs in presence of aztreonam by checkerboard method; type: functional; details: dose 128 µg/ml
Pseudomonas aeruginosa [23] = test: Antibacterial activity against Pseudomonas aeruginosa PAO1 assessed as fractional inhibitory concentration index upto 128 ug/ml incubated for 18 hrs in presence of aztreonam by checkerboard method; type: functional; details: dose <= 128 µg/ml
Pseudomonas aeruginosa [24] = test: Antibacterial activity against Pseudomonas aeruginosa K854 overexpressing MexAB-OprM assessed as fractional inhibitory concentration index upto 128 ug/ml incubated for 18 hrs in presence of aztreonam by checkerboard method; type: functional; details: dose <= 128 µg/ml
Pseudomonas aeruginosa [25] = test: Antibacterial activity against Pseudomonas aeruginosa 13-35 in CAMH broth medium supplemented with 0.41 to 0.51 mM Mg2+ by checkerboard assay; type: functional
Pseudomonas aeruginosa [26] = test: Antibacterial activity against Pseudomonas aeruginosa 12-1 in CAMH broth medium supplemented with 0.41 to 0.51 mM Mg2+ by checkerboard assay; type: functional
Pseudomonas aeruginosa [27] = test: Antibacterial activity against Pseudomonas aeruginosa 13-35 in CAMH broth medium supplemented with 20.99 to 21.09 mM Mg2+ by checkerboard assay; type: functional
Pseudomonas aeruginosa [28] = test: Antibacterial activity against Pseudomonas aeruginosa 12-1 in CAMH broth medium supplemented with 20.99 to 21.09 mM Mg2+ by checkerboard assay; type: functional
Pseudomonas aeruginosa [29] = test: Synergistic antibacterial activity against Pseudomonas aeruginosa PAO1 in CAMH broth medium supplemented with 0.41 to 0.51 mM Mg2+ in presence of aztreonam by checkerboard assay; type: functional
Pseudomonas aeruginosa [30] = test: Synergistic antibacterial activity against Pseudomonas aeruginosa 16-11 in CAMH broth medium supplemented with 0.41 to 0.51 mM Mg2+ in presence of aztreonam by checkerboard assay; type: functional
Pseudomonas aeruginosa [31] = test: Synergistic antibacterial activity against Pseudomonas aeruginosa 13-35 in CAMH broth medium supplemented with 0.41 to 0.51 mM Mg2+ in presence of aztreonam by checkerboard assay; type: functional
Pseudomonas aeruginosa [32] = test: Synergistic antibacterial activity against Pseudomonas aeruginosa 16-11 in CAMH broth medium supplemented with 20.99 to 21.09 mM Mg2+ in presence of aztreonam by checkerboard assay; type: functional
Pseudomonas aeruginosa [33] = test: Synergistic antibacterial activity against Pseudomonas aeruginosa 12-1 in CAMH broth medium supplemented with 20.99 to 21.09 mM Mg2+ in presence of aztreonam by checkerboard assay; type: functional
Pseudomonas aeruginosa [34] = test: Synergistic antibacterial activity against Pseudomonas aeruginosa 16-11 assessed as fractional inhibitory concentration index in CAMH broth medium supplemented with 0.41 to 0.51 mM Mg2+ in presence of aztreonam by checkerboard assay; type: functional
Pseudomonas aeruginosa [35] = test: Synergistic antibacterial activity against Pseudomonas aeruginosa 12-1 assessed as fractional inhibitory concentration index in CAMH broth medium supplemented with 0.41 to 0.51 mM Mg2+ in presence of aztreonam by checkerboard assay; type: functional
Pseudomonas aeruginosa [36] = test: Synergistic antibacterial activity against Pseudomonas aeruginosa PAO1 assessed as fractional inhibitory concentration index in CAMH broth medium supplemented with 20.99 to 21.09 mM Mg2+ in presence of aztreonam by checkerboard assay; type: functional
Pseudomonas aeruginosa [37] = test: Synergistic antibacterial activity against Pseudomonas aeruginosa 12-1 assessed as fractional inhibitory concentration index in CAMH broth medium supplemented with 20.99 to 21.09 mM Mg2+ in presence of aztreonam by checkerboard assay; type: functional

| SMILES | MIC (Pseudomonas aeruginosa [1]) [µg/mL] | CC50 at 24 h [2] [µM] | CC50 at 24 h [3] [µM] | MIC (Pseudomonas aeruginosa [4]) [µg/mL] | MIC (Pseudomonas aeruginosa [5]) [µg/mL] | MIC (Pseudomonas aeruginosa [7]) [µg/mL] | MIC (Pseudomonas aeruginosa [8]) [µg/mL] | MIC (Pseudomonas aeruginosa [9]) [µg/mL] | fractional inhibitory concentration index (FICI) (Pseudomonas aeruginosa [10]) | fractional inhibitory concentration index (FICI) (Pseudomonas aeruginosa [11]) | fractional inhibitory concentration index (FICI) (Pseudomonas aeruginosa [12]) | fractional inhibitory concentration index (FICI) (Pseudomonas aeruginosa [13]) | fractional inhibitory concentration index (FICI) (Pseudomonas aeruginosa [14]) | fractional inhibitory concentration index (FICI) (Pseudomonas aeruginosa [15]) | fractional inhibitory concentration index (FICI) (Pseudomonas aeruginosa [16]) | fractional inhibitory concentration index (FICI) (Pseudomonas aeruginosa [17]) | fractional inhibitory concentration index (FICI) (Pseudomonas aeruginosa [18]) | fractional inhibitory concentration index (FICI) (Pseudomonas aeruginosa [19]) | fractional inhibitory concentration index (FICI) (Pseudomonas aeruginosa [20]) | fractional inhibitory concentration index (FICI) (Pseudomonas aeruginosa [21]) | also measured |
| --- | --- | --- | --- | --- | --- | --- | --- | --- | --- | --- | --- | --- | --- | --- | --- | --- | --- | --- | --- | --- | --- |
| NCCC[C@H](NC(=O)C[C@@H](N)Cc1ccccc1)C(=O)Nc1ccc2ccccc2c1 | 512 | > 100 | > 100 | 2 | > 512 | > 512 | > 512 | 32 | 0.5 | 0.5 | <0.5 | 0.375 | 1.25 | 1 | 0.5 | 0.313 | 0.5 | 0.375 | 0.313 | 0.5 | MIC (Pseudomonas aeruginosa [6]): > 512 µg/mL; fractional inhibitory concentration index (FICI) (Pseudomonas aeruginosa [22]): <0.281; fractional inhibitory concentration index (FICI) (Pseudomonas aeruginosa [23]): <0.375; fractional inhibitory concentration index (FICI) (Pseudomonas aeruginosa [24]): <0.5; MIC (Pseudomonas aeruginosa [25]): 512 µg/mL; MIC (Pseudomonas aeruginosa [26]): 512 µg/mL; MIC (Pseudomonas aeruginosa [27]): 512 µg/mL; MIC (Pseudomonas aeruginosa [28]): 512 µg/mL; MIC (Pseudomonas aeruginosa [29]): 128 µg/mL; MIC (Pseudomonas aeruginosa [30]): 128 µg/mL; MIC (Pseudomonas aeruginosa [31]): 128 µg/mL; MIC (Pseudomonas aeruginosa [32]): 128 µg/mL; MIC (Pseudomonas aeruginosa [33]): 128 µg/mL; fractional inhibitory concentration index (FICI) (Pseudomonas aeruginosa [34]): 1.25; fractional inhibitory concentration index (FICI) (Pseudomonas aeruginosa [35]): 1.25; fractional inhibitory concentration index (FICI) (Pseudomonas aeruginosa [36]): 0.375; fractional inhibitory concentration index (FICI) (Pseudomonas aeruginosa [37]): 1.25 |
| N=C(N)NCCC[C@H](NC(=O)[C@@H](N)Cc1ccccc1)C(=O)Nc1ccc2ccccc2c1 [PABETAN] (H-Phe-Arg-βNA) | 512 | > 100 | > 100 | 2 | 512 (≈ 1150 µM) | 512 (≈ 1150 µM) | 512 (≈ 1150 µM) | 16 | 0.5 | 0.5 | 0.5 | 0.375 | 0.75 | 1 | 0.375 | 0.313 | 0.5 | 0.375 | 0.313 | 0.5 | MIC (Pseudomonas aeruginosa [6]; read-out: MIC): 512 µg/mL (≈ 1150 µM); fractional inhibitory concentration index (FICI) (Pseudomonas aeruginosa [22]): 0.281; fractional inhibitory concentration index (FICI) (Pseudomonas aeruginosa [23]): <0.375; fractional inhibitory concentration index (FICI) (Pseudomonas aeruginosa [24]): <0.75; MIC (Pseudomonas aeruginosa [25]): 512 µg/mL; MIC (Pseudomonas aeruginosa [26]): 512 µg/mL; MIC (Pseudomonas aeruginosa [27]): 512 µg/mL; MIC (Pseudomonas aeruginosa [28]): 512 µg/mL; MIC (Pseudomonas aeruginosa [29]): 128 µg/mL; MIC (Pseudomonas aeruginosa [30]): 128 µg/mL; MIC (Pseudomonas aeruginosa [31]): 128 µg/mL; MIC (Pseudomonas aeruginosa [32]): 128 µg/mL; MIC (Pseudomonas aeruginosa [33]): 128 µg/mL; fractional inhibitory concentration index (FICI) (Pseudomonas aeruginosa [34]): 1.25; fractional inhibitory concentration index (FICI) (Pseudomonas aeruginosa [35]): 1.25; fractional inhibitory concentration index (FICI) (Pseudomonas aeruginosa [36]): 0.5; fractional inhibitory concentration index (FICI) (Pseudomonas aeruginosa [37]): 1.25 |
